Assays:
mGPRC6A (mouse GPRC6A) = biological target: T1, mGPRC6A (mouse GPRC6A) (Mus musculus, UniProt Q8K4Z6); experiment: Ca^2+i mobilisation, FlpIn-TREx-HEK293-mGPRC6A cells; format: cell-based
T1 sequence (Q8K4Z6 21-928): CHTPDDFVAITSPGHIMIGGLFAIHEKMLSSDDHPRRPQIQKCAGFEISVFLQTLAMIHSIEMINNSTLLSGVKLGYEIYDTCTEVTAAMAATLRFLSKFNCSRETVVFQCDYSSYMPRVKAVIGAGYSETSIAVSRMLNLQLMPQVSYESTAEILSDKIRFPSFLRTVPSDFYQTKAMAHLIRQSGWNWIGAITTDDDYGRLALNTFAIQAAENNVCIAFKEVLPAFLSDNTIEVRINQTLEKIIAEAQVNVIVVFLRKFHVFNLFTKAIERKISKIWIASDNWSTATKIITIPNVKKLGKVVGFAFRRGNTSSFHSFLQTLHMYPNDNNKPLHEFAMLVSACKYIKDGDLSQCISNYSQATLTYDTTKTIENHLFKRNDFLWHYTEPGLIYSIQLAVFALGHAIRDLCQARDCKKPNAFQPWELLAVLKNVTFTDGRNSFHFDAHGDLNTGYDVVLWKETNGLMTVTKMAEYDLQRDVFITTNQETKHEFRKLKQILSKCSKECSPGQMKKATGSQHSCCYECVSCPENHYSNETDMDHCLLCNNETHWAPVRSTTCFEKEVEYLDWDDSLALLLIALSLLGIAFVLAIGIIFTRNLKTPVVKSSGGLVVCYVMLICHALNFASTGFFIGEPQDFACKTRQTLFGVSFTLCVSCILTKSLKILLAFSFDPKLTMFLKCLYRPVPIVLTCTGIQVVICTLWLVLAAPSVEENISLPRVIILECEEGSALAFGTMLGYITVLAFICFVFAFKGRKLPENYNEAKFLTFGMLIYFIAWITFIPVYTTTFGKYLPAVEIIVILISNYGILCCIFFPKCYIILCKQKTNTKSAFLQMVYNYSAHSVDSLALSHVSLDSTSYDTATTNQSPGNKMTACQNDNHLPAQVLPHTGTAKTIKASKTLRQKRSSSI
In short: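 Tetracycline-induced FlpIn-TREx-HEK293 cells expressing mouse GPRC6A, transiently transfected with Gαq or GαqG66D and serum-starved overnight, were loaded with 1 μM Fluo-4-AM 1 h at 37 °C in pH 7.4 buffer with probenecid.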

GLUTag cells = conditions: endogenous; ref [17] (supplement list); cited from earlier work
Excerpt: (§1) Supplement pone.0146846.s004.docx, table 1 | column: Functional assay

22RV1 = conditions: endogenous, cited from earlier work
Excerpt: as §1

3T3-L1 adipocytes = conditions: endogenous; ref [16] (supplement list); cited from earlier work
Excerpt: as §1

GPRC6A = conditions: ref [6] (supplement list); cited from earlier work
Excerpt: as §1

MA-10 Leyding cells = conditions: endogenous; ref [15] (supplement list); cited from earlier work
Excerpt: as §1

MC3T3-E1 = conditions: endogenous; ref cell of this line empty; cited from earlier work
Excerpt: as §1

TC6 = conditions: endogenous; ref [11] (supplement list); cited from earlier work
Excerpt: as §1

TM3 Leydig cells = conditions: endogenous; ref [12] (supplement list); cited from earlier work
Excerpt: as §1

Unknown species GPRC6A = conditions: ref [11] (supplement list); cited from earlier work
Excerpt: as §1

hC6A = conditions: ref [9] (supplement list); cited from earlier work
Excerpt: as §1

With `NCCC[C@H](N)C(=O)O` [L-ornithine] as the compound, how does the “potency at murine GPRC6A (calcium and inositol phosphate, words)” value (mGPRC6A (mouse GPRC6A); calcium mobilisation and inositol phosphate accumulation, Discussion) read?
Its value is “most potent agonists”.

What about the “rank order of potency, Ca^2+ mobilisation” value (mGPRC6A (mouse GPRC6A); co-expressing GαqG66D, Fig 1D) of the same compound?
The value was “L-ornithine > L-arginine = L-lysine”.

And the EC50 (mGPRC6A (mouse GPRC6A); co-expressing GαqG66D, Fluo-4, normalised to 100 μM ATP, pEC50 ± SEM, printed in picture Fig 1D, read-out: pEC50, Ca^2+ mobilisation (converted))?
Its EC50 is 3.16 µM.

And the GLP-1 secretion response (GLUTag cells)?
The GLP-1 secretion response was “response”.

Which results are given for “OCN: osteoblast-derived peptide, osteocalcin; variant not specified at the place (YLYQWLGAPVPYPDPLEPRREVCELNPDCDELADHIGFQEAYRRFYGPV; UniProt P02818 52-100, looked up)”?
Chemotaxis (22RV1) response (22RV1; ref [9] (supplement list)): pERK1/2 – response to Ca^2+, ZnCl2, OCN, Arginine, Testosterone-BSA Proliferation – response to Ca^2+, OCN PSA, Runx2 expression – response to OCN, Arg, R1881 Chemotaxis (22RV1) – response to Ca^2+, OCN; Proliferation response (22RV1; ref [10] (supplement list)): pERK1/2 – response to Testosterone-BSA, Proliferation – response to Ca^2+, OCN, Testosterone-BSA; Adiponectin, PPARγ expression response (3T3-L1 adipocytes): cAMP – response to OCN pERK1/2 – response to OCN pCREB – response to OCN Adiponectin, PPARγ expression – response to OCN; cAMP response (3T3-L1 adipocytes): cAMP – response to OCN pERK1/2 – response to OCN pCREB – response to OCN Adiponectin, PPARγ expression – response to OCN; pCREB response (3T3-L1 adipocytes): cAMP – response to OCN pERK1/2 – response to OCN pCREB – response to OCN Adiponectin, PPARγ expression – response to OCN; pERK1/2 response (3T3-L1 adipocytes): cAMP – response to OCN pERK1/2 – response to OCN pCREB – response to OCN Adiponectin, PPARγ expression – response to OCN; SRE-reporter gene response (GPRC6A): pERK1/2 – response to Ca^2+, Mg^2+, Gd^3+, Al^3+, NPS R568 SRE-reporter gene – response to CaCl2, SrCl2, MgCl2, GdCl3 and OCN; Ca^2+i response (MA-10 Leyding cells): response; Release of 25-OH-Vit D or Testosterone (MA-10 Leyding cells): response; cAMP response (MA-10 Leyding cells): no response; SRE-reporter gene response (MC3T3-E1): SRE-reporter gene – response to OCN; pERK1/2, pPKD1 response (TC6): pERK1/2, pPKD1 – response to OCN, L-Arg; Ca2+i response (TM3 Leydig cells): negative; cAMP response (TM3 Leydig cells): response; pCREB response (TM3 Leydig cells): response; pERK1/2 response (TM3 Leydig cells): negative; pERK1/2 response (Unknown species GPRC6A): pERK1/2 - response to Ca^2+, L-Arg, OCN.; pERK1/2 response (hC6A): pERK1/2 – response to Ca^2+, ZnCl2, OCN, Arginine, Testosterone-BSA

From PMC4718634, “Murine GPRC6A Mediates Cellular Responses to L-Amino Acids, but Not Osteocalcin Variants” (PLoS ONE, 2016)
